# Article PMC5224920, “Assessing the mechanism and therapeutic potential of modulators of the human Mediator complex-associated protein kinases” (eLife, 2016)
# System: 12 single or co-culture in vitro tissue models of primary cells
# Assay: Culture/co-culture cell model panel, extracellular biomarkers (DiscoveRx); as to CCL2/MCP-1: reference of the scale not given here; as to CXCL8/IL-8: reference of the scale not given here; as to CXCL9/MIG: reference of the scale not given here; as to IL-1alpha: reference of the scale not given here; as to M-CSF: reference of the scale not given here; as to PBMC Cytotoxicity: reference of the scale not given here; as to SRB: reference of the scale not given here; as to sTNF-alpha: reference of the scale not given here
# Format: cell-based, human
# Details: for B cell Proliferation / PBMC Cytotoxicity / Secreted IgG / sIL-2 / sIL-6 / sIL-17A / sIL-17F / sTNF-alpha: BT
# [1] = HDF3CGF stimulated fibroblasts, 1.00E0 nM
# [2] = HDF3CGF stimulated fibroblasts, 1.00E1 nM
# [3] = HDF3CGF stimulated fibroblasts, 1.00E2 nM
# [4] = HDF3CGF stimulated fibroblasts, 1.00E3 nM
smiles,measurement,setting,value
CN1c2ccc(-c3cncc(Cl)c3N3CCC4(CC3)CNC(=O)O4)cc2CS1(=O)=O [CMPD2],SRB,"BENo, 1.00E3 nM",0.003
same,tPA,"BENo, 1.00E3 nM",0.049
same,uPA,"BENo, 1.00E3 nM",0.021
same,CCL26/Eotaxin-3,"BENo, 1.00E4 nM",0.048
same,CD54/ICAM-1,"BENo, 1.00E4 nM",-0.033
same,CD87/uPAR,"BENo, 1.00E4 nM",0.057
same,CXCL8/IL-8,"BENo, 1.00E4 nM",0.016
same,CXCL9/MIG,"BENo, 1.00E4 nM",0.075
same,CXCL10/IP-10,"BENo, 1.00E4 nM",0.073
same,CXCL11/I-TAC,"BENo, 1.00E4 nM",0.025
same,EGFR,"BENo, 1.00E4 nM",0.043
same,HLA-DR,"BENo, 1.00E4 nM",0.040
same,IL-1alpha,"BENo, 1.00E4 nM",-0.020
same,Keratin 8/18,"BENo, 1.00E4 nM",0.022
same,MMP-1,"BENo, 1.00E4 nM",0.039
same,MMP-9,"BENo, 1.00E4 nM",0.031
same,PAI-I,"BENo, 1.00E4 nM",-0.100
same,SRB,"BENo, 1.00E4 nM",0.001
same,tPA,"BENo, 1.00E4 nM",0.040
same,uPA,"BENo, 1.00E4 nM",-0.00475
same,CCL2/MCP-1,"BF4T, 1.00E0 nM",0.022
same,CCL26/Eotaxin-3,"BF4T, 1.00E0 nM",-0.032
same,CD54/ICAM-1,"BF4T, 1.00E0 nM",-0.00361
same,CD90,"BF4T, 1.00E0 nM",-0.036
same,CD106/VCAM-1,"BF4T, 1.00E0 nM",0.043
same,CXCL8/IL-8,"BF4T, 1.00E0 nM",0.040
same,IL-1alpha,"BF4T, 1.00E0 nM",0.007
same,Keratin 8/18,"BF4T, 1.00E0 nM",-0.001
same,MMP-1,"BF4T, 1.00E0 nM",0.030
same,MMP-3,"BF4T, 1.00E0 nM",0.082
same,MMP-9,"BF4T, 1.00E0 nM",0.039
same,PAI-I,"BF4T, 1.00E0 nM",-0.008
same,SRB,"BF4T, 1.00E0 nM",0.004
same,tPA,"BF4T, 1.00E0 nM",0.051
same,uPA,"BF4T, 1.00E0 nM",0.046
same,CCL2/MCP-1,"BF4T, 1.00E1 nM",-0.011
same,CCL26/Eotaxin-3,"BF4T, 1.00E1 nM",-0.107
same,CD54/ICAM-1,"BF4T, 1.00E1 nM",-0.027
same,CD90,"BF4T, 1.00E1 nM",-0.009
same,CD106/VCAM-1,"BF4T, 1.00E1 nM",0.033
same,CXCL8/IL-8,"BF4T, 1.00E1 nM",0.048
same,IL-1alpha,"BF4T, 1.00E1 nM",0.020
same,Keratin 8/18,"BF4T, 1.00E1 nM",-0.009
same,MMP-1,"BF4T, 1.00E1 nM",0.022
same,MMP-3,"BF4T, 1.00E1 nM",0.075
same,MMP-9,"BF4T, 1.00E1 nM",0.012
same,PAI-I,"BF4T, 1.00E1 nM",0.023
same,SRB,"BF4T, 1.00E1 nM",-0.00108
same,tPA,"BF4T, 1.00E1 nM",0.047
same,uPA,"BF4T, 1.00E1 nM",0.034
same,CCL2/MCP-1,"BF4T, 1.00E2 nM",-0.025
same,CCL26/Eotaxin-3,"BF4T, 1.00E2 nM",-0.086
same,CD54/ICAM-1,"BF4T, 1.00E2 nM",-0.020
same,CD90,"BF4T, 1.00E2 nM",0.002
same,CD106/VCAM-1,"BF4T, 1.00E2 nM",0.042
same,CXCL8/IL-8,"BF4T, 1.00E2 nM",0.050
same,IL-1alpha,"BF4T, 1.00E2 nM",0.00136
same,Keratin 8/18,"BF4T, 1.00E2 nM",0.009
same,MMP-1,"BF4T, 1.00E2 nM",0.008
same,MMP-3,"BF4T, 1.00E2 nM",0.053
same,MMP-9,"BF4T, 1.00E2 nM",0.008
same,PAI-I,"BF4T, 1.00E2 nM",0.039
same,SRB,"BF4T, 1.00E2 nM",4.82e-5
same,tPA,"BF4T, 1.00E2 nM",0.063
same,uPA,"BF4T, 1.00E2 nM",0.022
same,CCL2/MCP-1,"BF4T, 1.00E3 nM",-0.016
same,CCL26/Eotaxin-3,"BF4T, 1.00E3 nM",-0.102
same,CD54/ICAM-1,"BF4T, 1.00E3 nM",-0.022
same,CD90,"BF4T, 1.00E3 nM",-0.000476
same,CD106/VCAM-1,"BF4T, 1.00E3 nM",0.044
same,CXCL8/IL-8,"BF4T, 1.00E3 nM",0.047
same,IL-1alpha,"BF4T, 1.00E3 nM",-0.00456
same,Keratin 8/18,"BF4T, 1.00E3 nM",0.007
same,MMP-1,"BF4T, 1.00E3 nM",0.015
same,MMP-3,"BF4T, 1.00E3 nM",0.034
same,MMP-9,"BF4T, 1.00E3 nM",0.024
same,PAI-I,"BF4T, 1.00E3 nM",0.026
same,SRB,"BF4T, 1.00E3 nM",0.00277
same,tPA,"BF4T, 1.00E3 nM",0.071
same,uPA,"BF4T, 1.00E3 nM",0.023
same,CCL2/MCP-1,"BF4T, 1.00E4 nM",-0.034
same,CCL26/Eotaxin-3,"BF4T, 1.00E4 nM",-0.125
same,CD54/ICAM-1,"BF4T, 1.00E4 nM",-0.043
same,CD90,"BF4T, 1.00E4 nM",0.000654
same,CD106/VCAM-1,"BF4T, 1.00E4 nM",0.043
same,CXCL8/IL-8,"BF4T, 1.00E4 nM",0.030
same,IL-1alpha,"BF4T, 1.00E4 nM",-0.00143
same,Keratin 8/18,"BF4T, 1.00E4 nM",-0.023
same,MMP-1,"BF4T, 1.00E4 nM",0.010
same,MMP-3,"BF4T, 1.00E4 nM",0.027
same,MMP-9,"BF4T, 1.00E4 nM",-0.007
same,PAI-I,"BF4T, 1.00E4 nM",-0.013
same,SRB,"BF4T, 1.00E4 nM",0.000752
same,tPA,"BF4T, 1.00E4 nM",0.037
same,uPA,"BF4T, 1.00E4 nM",0.017
same,B cell Proliferation,1.00E0 nM,-0.010
same,PBMC Cytotoxicity,1.00E0 nM,0.032
same,Secreted IgG,1.00E0 nM,0.088
same,sIL-2,1.00E0 nM,0.154
same,sIL-6,1.00E0 nM,0.00536
same,sIL-17A,1.00E0 nM,-0.061
same,sIL-17F,1.00E0 nM,-0.213
same,sTNF-alpha,1.00E0 nM,0.097
same,B cell Proliferation,1.00E1 nM,-0.033
same,PBMC Cytotoxicity,1.00E1 nM,-0.030
same,Secreted IgG,1.00E1 nM,-0.163
same,sIL-2,1.00E1 nM,0.264
same,sIL-6,1.00E1 nM,0.057
same,sIL-17A,1.00E1 nM,0.173
same,sIL-17F,1.00E1 nM,-0.239
same,sTNF-alpha,1.00E1 nM,0.051
same,B cell Proliferation,1.00E2 nM,-0.057
same,PBMC Cytotoxicity,1.00E2 nM,-0.030
same,Secreted IgG,1.00E2 nM,-0.186
same,sIL-2,1.00E2 nM,0.109
same,sIL-6,1.00E2 nM,0.035
same,sIL-17A,1.00E2 nM,0.214
same,sIL-17F,1.00E2 nM,-0.485
same,sTNF-alpha,1.00E2 nM,0.059
same,B cell Proliferation,1.00E3 nM,-0.027
same,PBMC Cytotoxicity,1.00E3 nM,-0.033
same,Secreted IgG,1.00E3 nM,0.074
same,sIL-2,1.00E3 nM,0.068
same,sIL-6,1.00E3 nM,0.046
same,sIL-17A,1.00E3 nM,0.216
same,sIL-17F,1.00E3 nM,-0.463
same,sTNF-alpha,1.00E3 nM,0.076
same,B cell Proliferation,1.00E4 nM,-0.077
same,PBMC Cytotoxicity,1.00E4 nM,-0.046
same,Secreted IgG,1.00E4 nM,-0.114
same,sIL-2,1.00E4 nM,-0.00739
same,sIL-6,1.00E4 nM,-0.075
same,sIL-17A,1.00E4 nM,0.256
same,sIL-17F,1.00E4 nM,-0.594
same,sTNF-alpha,1.00E4 nM,0.009
same,CCL2/MCP-1,[1],-0.018
same,CD54/ICAM-1,[1],0.007
same,CD106/VCAM-1,[1],-0.010
same,CXCL8/IL-8,[1],-0.008
same,CXCL9/MIG,[1],-0.000757
same,CXCL10/IP-10,[1],0.037
same,CXCL11/I-TAC,[1],0.014
same,Collagen I,[1],0.035
same,Collagen III,[1],0.042
same,EGFR,[1],0.046
same,M-CSF,[1],-0.058
same,MMP-1,[1],0.070
same,PAI-I,[1],0.087
same,Proliferation_72hr,[1],-0.036
same,SRB,[1],0.000177
same,TIMP-1,[1],0.025
same,TIMP-2,[1],0.118
same,CCL2/MCP-1,[2],-0.070
same,CD54/ICAM-1,[2],-0.021
same,CD106/VCAM-1,[2],0.006
same,CXCL8/IL-8,[2],-0.045
same,CXCL9/MIG,[2],-0.030
same,CXCL10/IP-10,[2],0.050
same,CXCL11/I-TAC,[2],-0.011
same,Collagen I,[2],0.014
same,Collagen III,[2],0.091
same,EGFR,[2],-0.013
same,M-CSF,[2],-0.075
same,MMP-1,[2],0.050
same,PAI-I,[2],0.006
same,Proliferation_72hr,[2],-0.171
same,SRB,[2],-0.008
same,TIMP-1,[2],-0.010
same,TIMP-2,[2],0.117
same,CCL2/MCP-1,[3],-0.120
same,CD54/ICAM-1,[3],-0.051
same,CD106/VCAM-1,[3],0.051
same,CXCL8/IL-8,[3],-0.095
same,CXCL9/MIG,[3],-0.077
same,CXCL10/IP-10,[3],0.043
same,CXCL11/I-TAC,[3],-0.010
same,Collagen I,[3],0.00565
same,Collagen III,[3],0.086
same,EGFR,[3],-0.067
same,M-CSF,[3],-0.100
same,MMP-1,[3],0.024
same,PAI-I,[3],-0.00168
same,Proliferation_72hr,[3],-0.240
same,SRB,[3],0.000238
same,TIMP-1,[3],-0.059
same,TIMP-2,[3],0.121
same,CCL2/MCP-1,[4],-0.156
same,CD54/ICAM-1,[4],-0.066
same,CD106/VCAM-1,[4],0.036
same,CXCL8/IL-8,[4],-0.119
same,CXCL9/MIG,[4],-0.093
same,CXCL10/IP-10,[4],0.039
same,CXCL11/I-TAC,[4],-0.012
same,Collagen I,[4],0.040
same,Collagen III,[4],0.054
